Source: publication PMC11684002 (Journal of medicinal chemistry, 2020)

Columns and labels:
PPARγ = details: read-out: PPARγ agonist EC50; cited from earlier work
Photostationary states = assay type: physicochemical; details: for PSS, % trans-isomer, dark: dark-adapted
[1] = tested on: human PPAR response element (PPRE), endogenous PPARγ; assay: PPRE reporter gene assay in PPARγ expressing HepG2 cells; assay type: cell-based; details: trans-isomer
[2] = molecular target: T1, human PPARα ligand binding domain (Gal4 hybrid) (Homo sapiens, UniProt Q07869); assay: Gal4 hybrid reporter gene assay, PPARα; details: trans-isomer in the dark, HEK293T
T1 sequence (Q07869 239-466 limits assumed): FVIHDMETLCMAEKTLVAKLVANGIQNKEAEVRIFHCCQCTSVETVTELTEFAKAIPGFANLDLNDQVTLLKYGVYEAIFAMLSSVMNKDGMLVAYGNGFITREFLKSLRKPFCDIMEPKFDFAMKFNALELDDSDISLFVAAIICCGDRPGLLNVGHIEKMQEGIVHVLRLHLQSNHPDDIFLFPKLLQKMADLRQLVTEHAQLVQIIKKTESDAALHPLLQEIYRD

[3] = after 365 nm illumination, CDCl3
[4] = after 460 nm illumination, CDCl3

| PSS, % trans-isomer, 365 nm (Photostationary states; [3]) [%] | PSS, % trans-isomer, 460 nm (Photostationary states; [4]) [%] | PSS, % trans-isomer, dark (Photostationary states; CDCl3) [%] | Compound | EC50 (PPARγ) [nM] | other results |
| --- | --- | --- | --- | --- | --- |
| – | – | – | O=C1NC(=S)NC(=O)C1=Cc1ccc(OCc2ccccc2)c(Cl)c1 [MDG548] | 215 | – |
| 23 | 83 | 99 | Cc1ccccc1-c1ccc(/N=N/c2ccc(CC3SC(=O)NC3=O)cc2)cc1 (stereo not shown) [AzoRosi-4, (E)-5-(4-((2′-methyl-[1,1′-biphenyl]-4-yl)diazenyl)benzyl)thiazolidine-2,4-dione] | – | PPRE activation at 10 μM [1]: some PPRE activation was observed |
| – | – | – | O=C(c1ccccc1)c1ccccc1N[C@@H](Cc1ccc(/N=N/c2ccccc2)cc1)C(=O)O [AzoGW1929, (S,E)-2-((2-benzoylphenyl)amino)-3-(4-(phenyldiazenyl)phenyl)propanoic acid] | – | PSS, % trans-isomer, 365 nm (Photostationary states; after 365 nm illumination for five minutes, MeOD-d4): 67%; PSS, % trans-isomer, 460 nm (Photostationary states; after 460 nm illumination for five minutes, MeOD-d4): 76%; PSS, % trans-isomer, dark (Photostationary states; MeOD-d4): 95% |
| 4 | 80 | 100 | O=C1NC(=O)C(Cc2ccc(/N=N/c3ccccc3)cc2)S1 (stereo not shown) [AzoRosi, (E)-5-(4-(phenyldiazenyl)benzyl)thiazolidine-2,4-dione] | – | PPARα activation at 10 μM [2]: 8% activation at 10 μM |
